Data reported in a melting point compilation (Tetko et al.; mined from patent text by program, amines drawn as free bases though some values may be those of a salt).

Row | SMILES | melting point
1 | CCNC(=O)c1cc(N(C)C)ccc1[Si](C)(C)C | 141 to 143 °C
2 | CC(=O)Oc1ccccc1NC(=O)CBr | 79 to 82 °C
3 | CC(=O)NC1CC(n2cc(C=CBr)c(=O)[nH]c2=O)OC1CBr (stereo unspecified) | 178 to 180 °C
4 | CN(C)CCNC(=O)c1cccc2c1c(C(=O)C(=O)NC1=CC(=O)OC1)cn2Cc1ccc(Cl)cc1 | 225 to 227 °C
5 | C=CCOc1cc2c(cc1C)OC1(CC(C)(C)c3cc(O)c(C)cc3O1)CC2(C)C (stereo unspecified) | 143 to 144 °C
6 | O=c1oc(Nc2ccccc2I)nc2ccccc12 | 140 to 143 °C
7 | CC1Cc2c(Cl)ccc3c(=O)c(C(=O)O)cn1c23 (stereo unspecified) | 288 to 290 °C
8 | Nc1ccc2c(c1)CNC2 | 113 to 119 °C
9 | Clc1ccc(C2=CCN(Cc3coc4ncccc34)CC2)cc1 | 116 °C
10 | C#CC1(Oc2ccccc2[N+](=O)[O-])CCN(C(C)=O)CC1 | 112 to 115 °C
11 | C=Cc1cnc(C)c(OC(=O)OCC)c1CSC(=O)OCC | 142 to 145 °C
12 | CN1C(C)(C)CC(NC(=O)c2ccc(-c3nc4cc(Cl)c(Cl)cc4[nH]3)c(O)c2)CC1(C)C | > 250 °C
13 | CC#CC(O)(C(=O)OC)c1ccccc1 (stereo unspecified) | 64 to 65 °C
14 | S=C(Nc1cccc(Cl)c1)N1CCSC1=Nc1cccc(Cl)c1 | 121 to 123 °C
15 | CN(C)c1nc2sc3c(NCc4cccnc4)ncnc3c2c2c1CCC(C)(C)C2 | 208 to 209 °C
16 | N#Cc1ccc(-c2cccc(-c3cn4cc(C#N)ccc4n3)c2)cc1 | 290 to 292 °C
17 | Nc1c(Br)cc(Nc2ncnc3cnc(N4CCC(N)CC4)nc23)cc1Br | 204 to 206 °C
18 | CN1CCC(Oc2ccccc2N)(c2ccccc2)CC1 | 129 to 130 °C
19 | O=C(O)CCSCC(=O)c1cc2sc(=O)[nH]c2cc1Cl | 195 to 197 °C
20 | CCCCCCCCS(=O)(=O)CC(CS(=O)(=O)c1ccc(OC)cc1)C(=O)NO (stereo unspecified) | 134 °C
21 | Cc1ccc(C(=S)c2ccc(Cl)cc2)cc1 | 134 °C

Row | SMILES | melting point
22 | CNC(=O)N1N=C(c2ccc([N+](=O)[O-])c(C)c2)c2cc3c(cc2CC1C)OCO3 (stereo unspecified) | 221 to 229 °C
23 | CCCCC12CCC3C4CCC(=O)C=C4CCC3C1CCC2O (stereo unspecified) | 169 to 170 °C
24 | NS(=O)(=O)c1cc2ccc(O)cc2c(S(N)(=O)=O)c1-c1cccc(Cl)c1O | 135 to 137 °C
25 | CC1(C)Oc2ccc(Cl)cc2C(NS(C)(=O)=O)C1O (stereo unspecified) | 198 to 202 °C
26 | CC(C)(C)OC(=O)NCC(CC(=O)O)c1ccc(Cl)cc1 (stereo unspecified) | 139 to 141 °C
27 | CN1C(=O)N(c2ccc([N+](=O)[O-])c(C(F)(F)F)c2)C(=O)C1(C)CF (stereo unspecified) | 118 to 119 °C
28 | N#Cc1c(-c2ccc(Cl)cc2)[nH]c([N+](=O)[O-])c1Br | 180 to 185 °C
29 | CS(=O)(=O)c1ccc(-c2sc(COc3ccccc3Cl)nc2-c2ccc(F)cc2)cc1 | 189 to 191 °C
30 | CCOC(=O)CC/C=C(\C)c1sccc1Br | 62 to 64 °C
31 | CCOC(=O)C(=[N+]=[N-])C(=O)c1cc(I)cnc1Cl | 84 to 85 °C
32 | Cc1cccc(-c2nc3ccc(Cl)cn3c2-c2ccnc(-c3ccc(CN4CCOCC4)cc3)c2)n1 | 157 °C
33 | O=C1Nc2ccc(F)c(F)c2C1c1ncnc2c1cnn2C1CCCC1 (stereo unspecified) | > 300 °C
34 | CC1NC(=O)NN=C1c1ccc(S)cc1 (stereo unspecified) | 202 to 204 °C
35 | CN1N=C(c2ccccc2)C(C)(C)NC1=O | 128 to 130 °C
36 | CCOC(=O)C(C#N)=NOC(=O)OC | 69 to 71 °C
37 | CC(=O)N1CCC(c2nc3n(C4CCCC4)[nH]c(C)c-3c(=O)n2)CC1 | 176 to 178 °C
38 | c1ccc2c(c1)CCCC2N1CCCNCC1 (stereo unspecified) | 107 to 109 °C
39 | O=CC(CC(=O)O)NC(=O)C1CCCN2C(=O)CCC(NC(=O)c3ccccc3)C(=O)N12 (stereo unspecified) | 143 to 147 °C
40 | CC(=O)NC[C@H]1CC[C@H](C(=O)c2cc3c4c(c2)CCN4C(=O)CC3)CC1 | 178 to 180 °C
41 | CCOC(=O)C(=NOCSC)c1csc(NC=O)n1 | 130 to 131 °C

Further lines, results first:

Row | melting point | SMILES
42 | 52 to 53 °C | CN(C)CCCCCCCCCOc1ccc2oc(-c3ccccc3)cc(=O)c2c1
43 | 204 to 205 °C | O=C(ON1C(=O)CCC1=O)c1ccc(-c2ccc(S(=O)(=O)NCCO)cc2)[nH]c1=O
44 | 258 to 259 °C | COc1ccc(-c2c(Cl)c(CN3C(=O)CCC3=O)nc3sc4c(c23)CCC(C(=O)O)C4)cc1 (stereo unspecified)
45 | 260 to 262 °C | CCOc1ccc(-c2c(Cl)c(CN3C(=O)CCC3=O)nc3sc4c(c23)CCN(C(C)=O)C4)cc1
46 | 198 to 201 °C | N#CCc1ccc2oc3ncccc3c(=O)c2c1
47 | 165 °C | N#Cc1cnn2c(C(F)(F)F)cc(-c3ccccc3F)nc12
48 | 112 to 113 °C | Cc1cccc(-c2ccc(Cl)nn2)c1
49 | 229 °C | CC(C)(C)C1=NN(c2ccc(C(=O)O)cc2)C(c2ccccc2Cl)C1 (stereo unspecified)
50 | 62 to 63 °C | CCC(CCCc1cc(OC)c(OC)c(OC)c1)(c1cccs1)N(C)C (stereo unspecified)
51 | 150 to 152 °C | COC(=O)c1ccc2cc(-c3cccc(OC)c3)oc2c1
52 | 96 to 98 °C | CCCCCCN(CCCCCC)C(Nc1ccc(OC)cc1OC)=C1C(=O)COC1=O
53 | 145 to 155 °C | C=C1CCCN(Cc2ccc(OC)cc2)C1=O
54 | 205 °C | CC(=O)c1cc2cnccc2n1S(=O)(=O)c1ccccc1
55 | 90 to 92 °C | CC(C)(C)CNc1nc(C#Cc2ccccc2)ccc1[N+](=O)[O-]
56 | 105 °C | CCCCOc1ccc(N2CCN(c3cccc(C)c3)CC2)nn1
57 | 223 to 234 °C | COc1ccc(OC)n2nc(N)nc12
58 | 131 to 133 °C | Cc1cn(-c2ccc(NC(=O)c3ccc(C)c(C#Cc4cnc(NC5CC5)nc4)c3)cc2C(F)(F)F)cn1
59 | 158 °C | CCc1ccnc(C(=O)c2[nH]c3cc(Cl)ccc3c2CC(=O)O)c1Cl
60 | 92 to 94 °C | OCCCCCCOc1ccc(-c2ccccc2)cc1
61 | 111 to 113 °C | CN(C)Cc1ccc(Cn2ccc(OCc3ccc(F)cc3F)c(Br)c2=O)cc1

Row | melting point | SMILES
62 | 111 to 113 °C | COc1ccc2c(c1)CCC[C@H]2NC(=O)c1cccc(Cl)c1O
63 | 184 °C | Cc1cccc(CC(=O)N2C[C@@H]3C(=O)CCC(c4ccccc4)(c4ccccc4)[C@@H]3C2)c1 (racemic)
64 | 141 to 142 °C | CCCNC(=O)c1nc(-c2ccccc2)c(-c2ccc(=O)n(C(C)C)n2)s1
65 | 83 to 86 °C | CN(C)CCCc1ccc(C(=O)/C=C/c2ccc(Cl)cc2)cc1
66 | 162 to 164 °C | Cc1nc(N2CCN(Cc3ccc(F)cc3)C2=O)sc1C(=O)N(C)C
67 | 274 to 277 °C | NC(=O)c1ncn2c(-c3ccc(N4CCOCC4)cc3)ccnc12
68 | 101 °C | COc1cc(CO)c(-c2ccc(OCCC(C)CCCC(C)C)cc2)cc1CO (stereo unspecified)
69 | 76 to 77 °C | CCN(CC)C(=O)n1ccc(S(=O)(=O)c2cccc(Cl)c2C)n1
70 | 178 to 180 °C | CCCc1c(OCc2nc(N)c3nccnc3n2)ccc(C(C)=O)c1O
71 | 217 to 220 °C | O=c1[nH]c2ncc(-c3ccc4[nH]cnc4c3)nc2n1CC1CCCCC1
72 | 97 to 98 °C | Cc1ccc(COc2ncc(F)c(NCO)n2)cc1
73 | 134 to 135 °C | CCOC(=O)C1=C(C)NC(C)=C(C(=O)OC)C1c1cccc(C(F)(F)F)c1 (single isomer, unassigned; (-))
74 | 91 to 92 °C | CN(C)c1ccc(CSC2=NC(C)(C)C(SCc3ccc(N(C)C)cc3)=N2)cc1
75 | 163 °C | Cc1cccc(NC(=O)NCC(=O)N(CC(=O)N(C)c2ccc(F)c(F)c2)c2ccccc2)c1
76 | 269 to 271 °C | O=C(O)c1ccc(-c2ccc3c(c2)CCN(CCN2CCCC2)C3)cc1
77 | 131 to 132 °C | CCCCOC(=O)c1c(CSc2nccn2C)nc2cc(OC)c(OC)cc2c1-c1ccc(OC)c(OC)c1
78 | 257 to 258 °C | COc1c(OCCCC(=O)O)ccc2c1N=C(C=C(O)c1cccnc1)N1CCN=C21
79 | 79 to 80 °C | COc1ccc(CC2=NC(C)(C)CO2)cc1NC(=O)C(C)(C)CCCOc1cc(C)ccc1C
80 | 234 to 236 °C | NC(=NCC(F)(F)F)Nc1ccnc(SCCCC(=O)O)n1
81 | 268 °C | Cc1cccc(-c2coc3c(O)c(O)ccc3c2=O)c1

Row | melting point | SMILES
82 | 235 to 236 °C | COc1ccc(CCNC(=O)C(=O)NCc2ccc(NC(C)=O)cc2)cc1OC1CCCC1
83 | 127 to 128 °C | CCOC(=O)c1cc(-c2ccc(OC)cc2)nn(CC=Cc2ccc(Cl)cc2)c1=O
84 | 122 to 123 °C | COc1ccc(CC(=O)O)cc1OCCCc1cn(-c2ccc(C(F)(F)F)cn2)nc1C(C)C
85 | 85 to 87 °C | COc1ccc(C(C)=Cc2ccncc2)c2c1OC(C)(C)C2
86 | > 260 °C | Cn1c(=O)cc(C(=O)O)c2cc(C(=O)c3ccc(Cl)cc3)ccc21
87 | 209 to 212 °C | Cc1nc2ccc(-c3ccc(OCC4(NC(=O)OCc5ccccc5)COC4)cc3)nn2c1-c1cnc(N)c(C(F)(F)F)c1
88 | 175 to 176 °C | COCCOc1cc(NC(=O)OC(C)(C)C)c(NC(=O)CC(=O)c2cccc(C#N)c2)cc1C#Cc1ccccc1
89 | 83 to 85 °C | Clc1ccc2c(c1)oc1cc(OCCCBr)ccc12
90 | 153 to 154 °C | COc1ccc2c(=O)c(-c3ccc(OCC4CO4)cc3)coc2c1 (stereo unspecified)
91 | 121 to 122 °C | CCOc1nn(-c2cc(C(F)(F)F)ccn2)cc1CCCOc1ccccc1CC(=O)O
92 | 297 to 299 °C | COc1ccc(C2C3=C(COC3=O)Nc3ccc4cc[nH]c4c32)cc1O (stereo unspecified)
93 | 203 to 205 °C | Cc1cn(-c2cccc(O)c2)cn1
94 | 126 °C | C=CCc1cccc2c(=O)c(C)c(C=Cc3ccccc3)oc12
95 | 282 to 284 °C | COc1ccc(-c2cnn3cnnc3n2)cc1
96 | 138 to 140 °C | O=C(c1ccc(Cl)c(Cl)c1)N1CCCC(c2ccc(Br)s2)=N1
97 | 196 to 197 °C | COc1ccc2c(c1)CC(C(N)=O)N2C(C)=O (stereo unspecified)
98 | 176 to 178 °C | O=C(Nc1ccc2ccc(-c3ccc(Cl)c(Cl)c3)nc2n1)c1cccc(Br)c1
99 | 138 °C | CN(C)C=CC(=O)c1ccc(OCc2ccccc2)cc1
100 | 163 to 165 °C | Fc1ccc2c(C3CCN(CCc4ccccc4)CC3)n[nH]c2c1
101 | 271 to 272 °C | Cc1c2cc(C(=O)O)[nH]c2cc2c1sc1ccccc12
